Experiments:
slime = assay: Attachment of slime on a synthetic rubber test board in circulating test water apparatus; settings: 120 hours after start of test; agent concentrations as in each example
Method: (§1) From a water tank 1 holding 15 liters of water, test water was passed at a rate of 10 liters/minute through a column 3 and returned to the water tank 1 using a circulating pump 2. In the column 3, a test board made of a synthetic rubber and having a surface area of 40 cm^2 was disposed to a supporting pole to measure the amount of attachment of slime.
(§2) In a water tank 4, test liquid for supplement prepared in advance was stored and transferred into the water tank 1 at a rate of 5 ml/minute using a pump for an agent 5. The test liquid for supplement was prepared by adding calcium chloride and sodium hydrogencarbonate to city water, which was dechlorinated by passing through a column of active carbon, in amounts such that the calcium hardness was 150 mg CaCO3/liter and the acid consumption (pH 4.8) was 150 mg CaCO3/liter. As the nutrient for microorganisms, 100 mg/liter of citric acid was added. To the obtained solution, a test agent was added and pH was adjusted at 8.5 by adding sodium hydroxide.
(§3) When the test was started, dirt was added into the water in the water tank 1 in an amount such that the turbidity of the water was 50. As the dirt, a concentrated liquid of reverse washing discharged from filters for industrial water in Chiba area was used. The dirt was added into the water tank 1 in an amount corresponding to a turbidity of 25 at each time when 48 hours and 96 hours had passed after the start of the test.
(§4) The number of microorganisms in the circulating water and the turbidity of the circulating water were measured 48 hours, 72 hours and 120 hours after the start of the test. The test board of synthetic rubber attached to the column 3 was taken out 120 hours after the start of the test. After slime attached to the test board was cleaved and dried to the constant weight at 105° C., the weight of the slime was measured and the amount of the attached slime was obtained.
(§5) As part A of the test agent, a mixed liquid composed of 40% by weight of an aqueous solution of sodium hypochlorite having a concentration of effective chlorine of 12% by weight, 8% by weight of a sulfamic acid, 10% by weight of sodium hydroxide and 42% by weight of water was used. This mixed liquid is a solution conventionally used as the agent for preventing formation of slime. As part B of the agent, an anionic polymer or a phosphonic acid was used.

[1] = test system: microorganisms in the circulating water; assay: Number of microorganisms in the circulating water
Method: as §1, §2, §3, §4, §5

sludge = assay: Accumulation of sludge at the bottom of the water tank of the circulating test water apparatus; settings: 120 hours after start of test; agent concentrations as in each example
Method: as §1, §2, §3
A valve 6 at a lower portion of the water tank 1 was opened and the water in the water tank 1 was removed 120 hours after the start of the test. The valve 6 was then closed again. Into the water tank 1, 200 ml of pure water was added and dirt accumulated at the lower portion of the water tank was suspended using a brush. The valve was opened and the formed suspension was taken out. After the dirt was separated using a centrifuge and dried to the constant weight at 105° C., the weight of the dirt was measured and the amount of accumulated sludge was obtained.
as §5

[2] = Storage stability of effective chlorine in the composition at 40° C. shielded from light; format: physicochemical; settings: for concentration of effective chlorine remained: pH 14; for Fraction of remaining effective chlorine: pH of composition 14, 40° C.
Method: A composition composed of 40% by weight of an aqueous solution of sodium hypochlorite having a concentration of effective chlorine of 12% by weight, 8% by weight of sulfamic acid, 10% by weight of an anionic polymer or a phosphonic acid and the remaining amount of sodium hydroxide and water was prepared. pH of the composition was adjusted by changing the amount of sodium hydroxide. The prepared composition was stored in a vessel kept at the constant temperature of 40° C. and shielded from light. The concentration of the effective chlorine was measured after the composition was stored for a prescribed time.
For the measurement of the concentration of the effective chlorine, a residual chlorine meter manufactured by HACH Company and a reagent specific for this measurement were used. BELCREN (the weight-average molecular weight: 2730) manufactured by GREAT LAKES CHEMICAL Company was used as the polymaleic acid. ISOBAN (the weight-average molecular weight: 10,800) manufactured by KURARAY Co., Ltd. was used as the maleic acid-isobutylene copolymer. AQUARICK GL (the weight-average molecular weight: 10,700) manufactured by NIPPON SHOKUBAI Co., Ltd. was used as the acrylic acid-hydroxyallyloxypropanesulfonic acid copolymer. DEQUEST 2010 manufactured by MONSANTO Company was used as 1-hydroxyethylidene-1,1-diphosphonic acid. BAYHIBIT AM manufactured by BAYER Company was used as 2-phosphonobutane-1,2,4-tricarboxylic acid. BELCORE 575 manufactured by GREAT LAKES Company was used as hydroxyphosphonoacetic acid.

concentration of effective chlorine remained ([2]; after 3 month) | concentration of effective chlorine remained ([2]; after one month) | Fraction of remaining effective chlorine ([2]; after 7 days) [%] | Fraction of remaining effective chlorine ([2]; after 30 days) [%] | Fraction of remaining effective chlorine ([2]; after 90 days) [%] | SMILES | Attachment of slime amount (slime) [mg/dm^2] | Number of microorganisms in circulating water ([1]; after 48 hours) [mL⁻¹] | Number of microorganisms in circulating water ([1]; after 72 hours) [mL⁻¹] | Number of microorganisms in circulating water ([1]; after 120 hours) [mL⁻¹] | Accumulation of sludge amount (sludge) [mg] | number of microorganisms in the circulating water, in words ([1]; comparison in words, no time point)
 |  |  |  |  | O=C(O)C(O)P(=O)(O)O (stereo not shown) [Comparative Example 13, hydroxy-phosphonoacetic acid] | 16.5 | 660000 | 350000 | 490000 | 51.1 | 
about 20% | about 60% | 91 | 59 | 18 | OCl [sodium hypochlorite] |  |  |  |  |  | 
 |  |  |  |  | CC(O)(P(=O)(O)O)P(=O)(O)O [Comparative Example 9, 1-hydroxyethylidene-1,1-diphosphonic acid] | 16.1 | 1.3e+06 | 490000 | 680000 | 39.6 | 
 |  |  |  |  | O=C(O)CCC(CC(=O)O)(C(=O)O)P(=O)(O)O (stereo not shown) [Comparative Example 11, 2-phosphonobutane-1,2,4-tricarboxylic acid] | 16.5 | 3.8e+06 | 890000 | 760000 | 48.8 | 
 |  |  |  |  | O=C(O)CCC(CC(=O)O)(C(=O)O)P(=O)(O)O (stereo not shown) [Comparative Example 10, 2-phosphonobutane-1,2,4-tricarboxylic acid] | 19.2 | 670000 | 840000 | 420000 | 55.5 | 
 |  |  |  |  | CC(O)(P(=O)(O)O)P(=O)(O)O [Comparative Example 8, 1-hydroxyethylidene-1,1-diphosphonic acid] | 17.3 | 720000 | 550000 | 490000 | 42.8 | not substantially different

Reference: patent US7285221B2, “Composition for preventing of slime and method for preventing slime” (Kurita Water Industries, Ltd., priority 2002, dated 2007)
